Patent publication US20240209028A1, “CNP COMPOUNDS” (priority 2022, published 2024)
Starred links: 1 amine or outer side, 2 acyl side, 3 side chain; linkers in the order of their positions; H or OH if unused. Positions of bridges follow the written chain, without caps; N, C: chain ends. Residues, ends and D or L forms follow the SMILES beside them. *: point of attachment. C18 diacid = O=C(O)CCCCCCCCCCCCCCCCC(=O)*; γGlu = O=C(O)[C@H](CCC(=O)[*:2])N[*:1]; AEEA = NCCOCCOCC(=O)O

Molecular target: T1, human natriuretic peptide receptor 2 (hNPR2) (Homo sapiens, UniProt P20594)
T1 construct: expressed in transfected cells; host or cells: HEK293 (ATCC CRL-1573), clone 35, co-transfected with pGloSensor-42F
T1 sequence (P20594 23-1047): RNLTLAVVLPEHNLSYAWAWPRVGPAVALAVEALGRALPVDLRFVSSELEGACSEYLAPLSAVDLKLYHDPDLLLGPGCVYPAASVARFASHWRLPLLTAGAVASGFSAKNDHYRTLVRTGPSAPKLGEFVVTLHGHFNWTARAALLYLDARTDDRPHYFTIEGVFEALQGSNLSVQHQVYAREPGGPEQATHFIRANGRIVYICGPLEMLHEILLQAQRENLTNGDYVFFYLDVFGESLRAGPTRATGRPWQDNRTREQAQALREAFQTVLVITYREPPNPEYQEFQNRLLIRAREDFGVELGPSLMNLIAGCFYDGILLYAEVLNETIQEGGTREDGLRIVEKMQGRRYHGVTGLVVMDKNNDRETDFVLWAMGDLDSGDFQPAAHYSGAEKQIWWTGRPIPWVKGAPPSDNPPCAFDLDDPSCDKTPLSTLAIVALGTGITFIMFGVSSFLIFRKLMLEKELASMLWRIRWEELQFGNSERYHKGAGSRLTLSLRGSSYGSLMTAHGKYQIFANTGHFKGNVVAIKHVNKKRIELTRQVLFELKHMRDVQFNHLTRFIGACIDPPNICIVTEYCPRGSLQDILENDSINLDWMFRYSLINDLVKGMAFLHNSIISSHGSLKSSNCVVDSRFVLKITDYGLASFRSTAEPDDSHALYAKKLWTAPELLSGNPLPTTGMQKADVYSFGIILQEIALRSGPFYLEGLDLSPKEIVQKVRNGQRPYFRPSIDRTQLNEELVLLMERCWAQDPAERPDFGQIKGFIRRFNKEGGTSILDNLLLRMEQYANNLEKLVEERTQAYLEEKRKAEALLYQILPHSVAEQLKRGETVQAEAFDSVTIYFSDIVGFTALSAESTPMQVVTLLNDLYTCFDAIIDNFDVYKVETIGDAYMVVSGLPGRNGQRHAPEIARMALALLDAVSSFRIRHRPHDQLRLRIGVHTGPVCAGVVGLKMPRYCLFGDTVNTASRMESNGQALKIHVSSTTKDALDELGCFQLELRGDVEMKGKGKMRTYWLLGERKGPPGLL
Experiment: In vitro hNPR2 activity assay (cGMP GloSensor reporter, HEK293)
Format: cell-based
Conditions: potency relative to CNP22 (0065)
Outline: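 Potency is the EC50 from a four-parameter logistic fit, also expressed relative to the in-plate CNP22 control (×100), with at least two replicates. Compounds (ten concentrations, […], HSA-free diluent with 1% OVA, 0.01% Tween20) were incubated 30 min at 37 °C on HEK293 cells co-expressing hNPR2 and a GloSensor cGMP luciferase. Luminescence detected with Bright-Glo.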

Row | SMILES | hNPR2 0% HSA. [EC50% rel CNP] [%]
1 | CC[C@H](C)[C@@H]1NC(=O)[C@H](CCCNC(=N)N)NC(=O)[C@H](CC(=O)O)NC(=O)[C@H](CC(C)C)NC(=O)[C@@H]2CCCN2C(=O)[C@H](CC(C)C)NC(=O)CNC(=O)[C@H](Cc2ccccc2)NC(=O)[C@@H](NC(=O)CNC(=O)[C@H](CO)NC(=O)[C@H](CO)NC(=O)[C@@H](NC(=O)CNC(=O)[C@@H](NC(=O)[C@H](CCCCN)NC(=O)[C@H](CCC(N)=O)NC(=O)[C@H](C)NC(=O)CNC(=O)[C@H](Cc2c[nH]cn2)NC(=O)[C@H](CCC(=O)O)NC(=O)[C@H](CCCCN)NC(=O)[C@H](CCCNC(=N)N)NC(=O)[C@H](C)NC(=O)COCCOCCNC(=O)COCCOCCNC(=O)CC[C@H](NC(=O)CCCCCCCCCCCCCCCCC(=O)O)C(=O)O)[C@@H](C)O)C(C)C)CSSC[C@@H](C(=O)O)NC(=O)CNC(=O)[C@H](CC(C)C)NC(=O)CNC(=O)[C@H](CO)NC(=O)[C@H](CC(C)C)NC(=O)[C@H](CO)NC(=O)CNC1=O [compound 1359] ({C18 diacid-γGlu-AEEA-AEEA}-ARKEHGAQKTGVSSGCFGLPLDRIGSLSGLGC-OH; disulfide 16-32; C-terminus assumed) | 28.2
2 | CC[C@H](C)[C@@H]1NC(=O)[C@H](CCCNC(=N)N)NC(=O)[C@H](CC(=O)O)NC(=O)[C@H](CC(C)C)NC(=O)[C@@H]2CCCN2C(=O)[C@H](CC(C)C)NC(=O)CNC(=O)[C@H](Cc2ccccc2)NC(=O)[C@@H](NC(=O)CNC(=O)[C@H](CO)NC(=O)[C@H](CO)NC(=O)[C@@H](NC(=O)CNC(=O)[C@@H](NC(=O)[C@H](Cc2c[nH]cn2)NC(=O)[C@H](CCC(N)=O)NC(=O)[C@H](C)NC(=O)CNC(=O)[C@H](Cc2c[nH]cn2)NC(=O)[C@H](CCC(=O)O)NC(=O)[C@H](CCCCN)NC(=O)[C@H](CCCNC(=N)N)NC(=O)[C@H](C)NC(=O)COCCOCCNC(=O)COCCOCCNC(=O)CC[C@H](NC(=O)CCCCCCCCCCCCCCCCC(=O)O)C(=O)O)[C@@H](C)O)C(C)C)CSSC[C@@H](C(=O)O)NC(=O)CNC(=O)[C@H](CC(C)C)NC(=O)CNC(=O)[C@H](CO)NC(=O)[C@H](CC(C)C)NC(=O)[C@H](CO)NC(=O)CNC1=O [compound 1360] ({C18 diacid-γGlu-AEEA-AEEA}-ARKEHGAQHTGVSSGCFGLPLDRIGSLSGLGC-OH; disulfide 16-32) | 15.1
3 | CC[C@H](C)[C@@H]1NC(=O)[C@H](CCCNC(=N)N)NC(=O)[C@H](CC(=O)O)NC(=O)[C@H](CC(C)C)NC(=O)[C@@H]2CCCN2C(=O)[C@H](CC(C)C)NC(=O)CNC(=O)[C@H](Cc2ccccc2)NC(=O)[C@@H](NC(=O)CNC(=O)[C@H](CO)NC(=O)[C@H](CO)NC(=O)[C@H](CC(C)C)NC(=O)CNC(=O)[C@H](CCCCN)NC(=O)[C@H](CCCCN)NC(=O)[C@H](CCC(N)=O)NC(=O)[C@H](C)NC(=O)CNC(=O)[C@H](CCC(=O)O)NC(=O)[C@H](Cc2ccc(O)cc2)NC(=O)[C@H](CO)NC(=O)[C@H](CCCNC(=N)N)NC(=O)[C@H](C)NC(=O)[C@H](CCC(=O)O)NC(=O)[C@@H]2CCCN2C(=O)[C@H](Cc2c[nH]cn2)NC(=O)[C@H](CCC(=O)O)NC(=O)[C@H](CCC(N)=O)NC(=O)COCCOCCNC(=O)COCCOCCNC(=O)CC[C@H](NC(=O)CCCCCCCCCCCCCCCCC(=O)O)C(=O)O)CSSC[C@@H](C(=O)O)NC(=O)CNC(=O)[C@H](CC(C)C)NC(=O)CNC(=O)[C@H](CO)NC(=O)[C@H](CC(C)C)NC(=O)[C@H](CO)NC(=O)CNC1=O [compound 1380] ({C18 diacid-γGlu-AEEA-AEEA}-QEHPEARSYEGAQKKGLSSGCFGLPLDRIGSLSGLGC-OH; disulfide 21-37; C-terminus assumed) | 15.7
4 | CC[C@H](C)[C@@H]1NC(=O)[C@H](CCCNC(=N)N)NC(=O)[C@H](CC(=O)O)NC(=O)[C@H](CC(C)C)NC(=O)[C@@H]2CCCN2C(=O)[C@H](CC(C)C)NC(=O)CNC(=O)[C@H](Cc2ccccc2)NC(=O)[C@@H](NC(=O)CNC(=O)[C@H](CCC(N)=O)NC(=O)[C@H](CO)NC(=O)[C@H](CO)NC(=O)CNC(=O)[C@H](Cc2c[nH]cn2)NC(=O)[C@H](CCCCN)NC(=O)[C@H](CCC(N)=O)NC(=O)[C@H](C)NC(=O)CNC(=O)[C@H](Cc2c[nH]cn2)NC(=O)[C@H](Cc2ccc(O)cc2)NC(=O)[C@H](CCCCN)NC(=O)[C@H](Cc2c[nH]cn2)NC(=O)[C@H](C)NC(=O)[C@H](CCC(N)=O)NC(=O)[C@@H]2CCCN2C(=O)[C@H](Cc2c[nH]cn2)NC(=O)[C@H](CCC(=O)O)NC(=O)[C@H](CCC(N)=O)NC(=O)COCCOCCNC(=O)COCCOCCNC(=O)CC[C@H](NC(=O)CC[C@H](NC(=O)CCCCCCCCCCCCCCCCC(=O)O)C(=O)O)C(=O)O)CSSC[C@@H](C(=O)O)NC(=O)CNC(=O)[C@H](CC(C)C)NC(=O)CNC(=O)[C@H](CO)NC(=O)[C@H](CC(C)C)NC(=O)[C@H](CO)NC(=O)CNC1=O [compound 1383] ({C18 diacid-γGlu-γGlu-AEEA-AEEA}-QEHPQAHKYHGAQKHGSSQGCFGLPLDRIGSLSGLGC-OH; disulfide 21-37) | 43.1
5 | CC[C@H](C)[C@@H]1NC(=O)[C@H](CCCNC(=N)N)NC(=O)[C@H](CC(=O)O)NC(=O)[C@H](CC(C)C)NC(=O)[C@@H]2CCCN2C(=O)[C@H](CC(C)C)NC(=O)CNC(=O)[C@H](Cc2ccccc2)NC(=O)[C@@H](NC(=O)CNC(=O)[C@H](CCCCN)NC(=O)[C@H](CO)NC(=O)[C@H](CC(C)C)NC(=O)CNC(=O)[C@H](CCCCN)NC(=O)[C@H](CCCCN)NC(=O)[C@H](CCC(N)=O)NC(=O)[C@H](C)NC(=O)CNC(=O)[C@H](CCC(=O)O)NC(=O)[C@H](Cc2ccc(O)cc2)NC(=O)[C@H](CCCCN)NC(=O)[C@H](CCCNC(=N)N)NC(=O)[C@H](C)NC(=O)CC[C@H](NC(=O)CC[C@H](NC(=O)CC[C@H](NC(=O)CC[C@H](NC(=O)CCCCCCCCCCCCCCCCC(=O)O)C(=O)O)C(=O)O)C(=O)O)C(=O)O)CSSC[C@@H](C(=O)O)NC(=O)CNC(=O)[C@H](CC(C)C)NC(=O)CNC(=O)[C@H](CO)NC(=O)[C@H](CC(C)C)NC(=O)[C@H](CO)NC(=O)CNC1=O [compound 1385] ({C18 diacid-γGlu-γGlu-γGlu-γGlu}-ARKYEGAQKKGLSKGCFGLPLDRIGSLSGLGC-OH; disulfide 16-32) | 30.7
6 | CC[C@H](C)[C@@H]1NC(=O)[C@H](CCCNC(=N)N)NC(=O)[C@H](CC(=O)O)NC(=O)[C@H](CC(C)C)NC(=O)[C@@H]2CCCN2C(=O)[C@H](CC(C)C)NC(=O)CNC(=O)[C@H](Cc2ccccc2)NC(=O)[C@@H](NC(=O)CNC(=O)[C@H](CO)NC(=O)[C@H](CO)NC(=O)[C@H](CC(C)C)NC(=O)CNC(=O)[C@H](CCCCN)NC(=O)[C@H](CCCCN)NC(=O)[C@H](CCC(N)=O)NC(=O)[C@H](C)NC(=O)CNC(=O)[C@H](CCCCN)NC(=O)[C@H](Cc2ccc(O)cc2)NC(=O)CNC(=O)CNC(=O)CNC(=O)CC[C@H](NC(=O)CC[C@H](NC(=O)CC[C@H](NC(=O)CC[C@H](NC(=O)CCCCCCCCCCCCCCCCC(=O)O)C(=O)O)C(=O)O)C(=O)O)C(=O)O)CSSC[C@@H](C(=O)O)NC(=O)CNC(=O)[C@H](CC(C)C)NC(=O)CNC(=O)[C@H](CO)NC(=O)[C@H](CC(C)C)NC(=O)[C@H](CO)NC(=O)CNC1=O [compound 1387] ({C18 diacid-γGlu-γGlu-γGlu-γGlu}-GGGYKGAQKKGLSSGCFGLPLDRIGSLSGLGC-OH; disulfide 16-32; C-terminus assumed) | 20.6
7 | CC[C@H](C)[C@@H]1NC(=O)[C@H](CCCNC(=N)N)NC(=O)[C@H](CC(=O)O)NC(=O)[C@H](CC(C)C)NC(=O)[C@@H]2CCCN2C(=O)[C@H](CC(C)C)NC(=O)CNC(=O)[C@H](Cc2ccccc2)NC(=O)[C@@H](NC(=O)CNC(=O)[C@H](CCCCN)NC(=O)[C@H](CO)NC(=O)[C@H](CC(C)C)NC(=O)CNC(=O)[C@H](CCCCN)NC(=O)[C@H](CCCCN)NC(=O)[C@H](CCC(N)=O)NC(=O)[C@H](C)NC(=O)CNC(=O)[C@H](CCCCN)NC(=O)[C@H](Cc2ccc(O)cc2)NC(=O)CNC(=O)CNC(=O)CNC(=O)CC[C@H](NC(=O)CC[C@H](NC(=O)CC[C@H](NC(=O)CC[C@H](NC(=O)CCCCCCCCCCCCCCCCC(=O)O)C(=O)O)C(=O)O)C(=O)O)C(=O)O)CSSC[C@@H](C(=O)O)NC(=O)CNC(=O)[C@H](CC(C)C)NC(=O)CNC(=O)[C@H](CO)NC(=O)[C@H](CC(C)C)NC(=O)[C@H](CO)NC(=O)CNC1=O [compound 1388] ({C18 diacid-γGlu-γGlu-γGlu-γGlu}-GGGYKGAQKKGLSKGCFGLPLDRIGSLSGLGC-OH; disulfide 16-32) | 23.5
